{
  "source": "patent US12661342B2",
  "about": "“Heteroaryl compounds and therapeutic uses thereof in conditions associated with the alteration of the activity of beta-glucocerebrosidase” (GT GAIN THERAPEUTICS SA, priority 2019, dated 2026)",
  "data": [
    {"target": "T1, β-glucocerebrosidase (Homo sapiens, UniProt P04062, L483P)", "T1 construct": "host or cells: human Gaucher disease patient fibroblasts GM08760A", "T1 sequence (P04062 40-536 L483P)": "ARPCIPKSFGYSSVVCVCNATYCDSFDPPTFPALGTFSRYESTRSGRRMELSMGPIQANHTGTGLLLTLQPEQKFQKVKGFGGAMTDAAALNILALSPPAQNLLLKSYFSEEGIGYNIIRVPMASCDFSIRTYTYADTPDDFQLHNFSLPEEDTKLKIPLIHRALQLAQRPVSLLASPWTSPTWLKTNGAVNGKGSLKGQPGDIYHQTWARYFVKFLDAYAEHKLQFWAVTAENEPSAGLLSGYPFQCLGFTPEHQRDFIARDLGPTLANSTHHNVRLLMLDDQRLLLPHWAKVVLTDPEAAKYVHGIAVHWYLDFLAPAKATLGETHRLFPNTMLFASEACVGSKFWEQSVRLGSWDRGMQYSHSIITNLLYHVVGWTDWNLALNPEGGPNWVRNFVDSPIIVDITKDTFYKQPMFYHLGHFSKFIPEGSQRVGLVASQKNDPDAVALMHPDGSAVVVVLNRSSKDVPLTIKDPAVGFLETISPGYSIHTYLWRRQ", "experiment": "Enhancement of β-glucocerebrosidase activity measured in Gaucher disease fibroblasts (4-MU-β-D-glucopyranoside substrate, intact cells)", "assay_type": "cell-based", "set-up": "key: Increase in comparison with non-treated of >2.0 fold is shown as A; Increase in comparison with non-treated of >1.7-2.0 fold is shown as B; Increase in comparison with non-treated of 1.2-1.7 fold is shown as C; D means that no increase compared with non-treated cells was detected in this method", "settings": "GBA fibroblasts bearing L444P (GM08760A, homozygous p.L444P); compound at concentrations between 6 and 50 μM; 4 days incubation", "procedure": "Human fibroblasts from a patient with Gaucher disease homozygous for p.L444P mutation (GM08760A) were purchased from Coriell Institute for Medical Research (Camden, NJ, USA).\nFibroblasts were seeded at 5×10^3 cells per well in 96-well cell culture plates (Corning, NY, USA) in Dulbecco's Modified Eagle's Media (DMEM) supplemented with 10% of fetal bovine serum (FBS), 1% penicillin/streptomycin (P/S) (Thermo Fisher Scientific, Waltham, MA, USA) and grown at 37° C., 5% CO2 overnight for cell attachment. Subsequently, cells were incubated in the absence or presence of the compounds at the desired concentration for 4 days. After incubation, cells were washed twice with phosphate-buffered saline (PBS) and enzyme activity assay was performed.\nβ-glucocerebrosidase activity in intact cultured cells was measured by using 4-methylumbelliferyl-β-D-glucopyranoside substrate (Apollo Scientific, UK). Briefly, cells were incubated with 4-MU-β-D-glucopyranoside in 0.1 M acetate buffer pH=4 at 37° C. for 1 hour. The reaction was stopped by adding 200 μL at 100 mM glycine-NaOH pH=10.7. The liberated 4-MU was measured on a GloMax Discover plate reader (Promega, Madison, WI, USA) with and excitation at 340 nm and emission at 460 nm. Enzyme activities were expressed in treated cells as X-fold increase in comparison with non-treated cells (X=1 represents no enhancement).\nThe capacity of the compounds of the disclosure to produce an increase in enzyme activity in GBA fibroblasts bearing L444P at concentrations between 6 and 50 μM is denoted as follows: • Increase in comparison with non-treated of >2.0 fold is shown as A • Increase in comparison with non-treated of >1.7-2.0 fold is shown as B • Increase in comparison with non-treated of 1.2-1.7 fold is shown as C • D means that no increase compared with non-treated cells was detected in this method • ND means “not determined”", "values": [
      {"smiles": "Nc1cc(Nc2cccc3c2OCO3)nc(C(=O)NC2Cc3ccccc3C2)c1", "note": "[Example 89, 4-Amino-6-(benzo[d][1,3]dioxol-4-ylamino)-N-(2,3-dihydro-1H-inden-2-yl)picolinamide]", "Range: increase in enzyme activity in comparison with non-treated cells (Enzyme activity assay for compounds of Examples 33-141)": "C (Increase in comparison with non-treated of 1.2-1.7 fold is shown as C)"},
      {"smiles": "Nc1nc(Nc2ccccc2O)cc(C(=O)N2Cc3ccccc3C2)n1", "note": "[Example 86, (2-Amino-6-((2-hydroxyphenyl)amino)pyrimidin-4-yl)(isoindolin-2-yl)methanone]", "Range: increase in enzyme activity in comparison with non-treated cells (Enzyme activity assay for compounds of Examples 33-141)": "C (Increase in comparison with non-treated of 1.2-1.7 fold is shown as C)"},
      {"smiles": "CN(C(=O)c1cc(N)nc(N[C@H]2CCCC[C@@H]2O)n1)c1ccccc1", "note": "[Example 33, 6-Amino-2-(((1S,2S)-2-hydroxycyclohexyl)amino)-N-methyl-N-phenylpyrimidine-4-carboxamide]", "Range: increase in enzyme activity in comparison with non-treated cells (Enzyme activity assay for compounds of Examples 33-141)": "D"},
      {"smiles": "Nc1nc(Nc2ccccc2O)cc(C(=O)N2CCc3ccccc3C2)n1", "note": "[Example 85, (2-Amino-6-((2-hydroxyphenyl)amino)pyrimidin-4-yl)(3,4-dihydroisoquinolin-2(1H)-yl)methanone]", "Range: increase in enzyme activity in comparison with non-treated cells (Enzyme activity assay for compounds of Examples 33-141)": "C (Increase in comparison with non-treated of 1.2-1.7 fold is shown as C)"},
      {"smiles": "Cc1cccc(Nc2nc(N)cc(C(=O)N3Cc4ccccc4C3)n2)c1", "note": "[Example 40, (6-Amino-2-(m-tolylamino)pyrimidin-4-yl)(isoindolin-2-yl)methanone]", "Range: increase in enzyme activity in comparison with non-treated cells (Enzyme activity assay for compounds of Examples 33-141)": "C (Increase in comparison with non-treated of 1.2-1.7 fold is shown as C)"},
      {"smiles": "Nc1cc(Nc2cccc(F)c2)nc(C(=O)N2Cc3ccccc3C2)c1", "note": "[Example 116, (6-(3-Fluorophenylamino)-4-aminopyridin-2-yl)(isoindolin-2-yl)methanone]", "Range: increase in enzyme activity in comparison with non-treated cells (Enzyme activity assay for compounds of Examples 33-141)": "C (Increase in comparison with non-treated of 1.2-1.7 fold is shown as C)"},
      {"smiles": "COc1ccccc1Nc1nc(N)nc2c1CCN(Cc1ccccc1)C2", "note": "[Example 24, 7-Benzyl-N4-(2-methoxyphenyl)-5,6,7,8-tetrahydropyrido[3,4-d]pyrimidine-2,4-diamine]", "Range: increase in enzyme activity in comparison with non-treated cells (Enzyme activity assay for exemplified compounds)": "C (Increase in comparison with non-treated of 1.2-1.7 fold is shown as C)"},
      {"smiles": "Nc1cc(Nc2ccccc2F)nc(C(=O)Nc2ccccc2)c1", "note": "[Example 75, 4-Amino-6-((2-fluorophenyl)amino)-N-phenylpicolinamide]", "Range: increase in enzyme activity in comparison with non-treated cells (Enzyme activity assay for compounds of Examples 33-141)": "C (Increase in comparison with non-treated of 1.2-1.7 fold is shown as C)"},
      {"smiles": "CN(C(=O)c1cc(Nc2ccccc2O)nc(N)n1)C1CCc2ccccc2C1", "note": "(centres unmarked) [Example 83, 2-amino-6-((2-hydroxyphenyl)amino)-N-methyl-N-(1,2,3,4-tetrahydronaphthalen-2-yl)-pyrimidine-4-carboxamide]", "Range: increase in enzyme activity in comparison with non-treated cells (Enzyme activity assay for compounds of Examples 33-141)": "D"},
      {"smiles": "Nc1cc(Nc2cccc(F)c2)nc(C(=O)N2CCN(c3ccccc3)CC2)c1", "note": "[Example 105, (4-Amino-6-((3-fluorophenyl)amino)pyridin-2-yl)(4-phenylpiperazin-1-yl)methanone]", "Range: increase in enzyme activity in comparison with non-treated cells (Enzyme activity assay for compounds of Examples 33-141)": "B (Increase in comparison with non-treated of >1.7-2.0 fold is shown as B)"},
      {"smiles": "CN(C(=O)c1cc(N)cc(Nc2ccccc2F)n1)C1Cc2ccccc2C1.Cl", "note": "[Example 132, 4-Amino-N-(2,3-dihydro-1H-inden-2-yl)-6-((2-fluorophenyl)amino)-N-methylpicolinamide hydrochloride]", "Range: increase in enzyme activity in comparison with non-treated cells (Enzyme activity assay for compounds of Examples 33-141)": "C (Increase in comparison with non-treated of 1.2-1.7 fold is shown as C)"},
      {"smiles": "Nc1nc(Nc2ccccc2O)cc(C(=O)NC2CCc3ccccc3C2)n1", "note": "(centres unmarked) [Example 84, 2-Amino-6-((2-hydroxyphenyl)amino)-N-(1,2,3,4-tetrahydronaphthalen-2-yl)pyrimidine-4-carboxamide]", "Range: increase in enzyme activity in comparison with non-treated cells (Enzyme activity assay for compounds of Examples 33-141)": "C (Increase in comparison with non-treated of 1.2-1.7 fold is shown as C)"},
      {"smiles": "Nc1cc(Nc2cccc(F)c2)nc(C(=O)NC2Cc3ccccc3C2)c1", "note": "[Example 92, 4-Amino-N-(2,3-dihydro-1H-inden-2-yl)-6-((3-fluorophenyl)amino)picolinamide]", "Range: increase in enzyme activity in comparison with non-treated cells (Enzyme activity assay for compounds of Examples 33-141)": "A (Increase in comparison with non-treated of >2.0 fold is shown as A)"},
      {"smiles": "Cl.Nc1cc(Nc2cc(F)cc(F)c2)nc(C(=O)NC2Cc3ccccc3C2)c1", "note": "[Example 140, 4-Amino-6-((3,5-difluorophenyl)amino)-N-(2,3-dihydro-1H-inden-2-yl)picolinamide hydrochloride]", "Range: increase in enzyme activity in comparison with non-treated cells (Enzyme activity assay for compounds of Examples 33-141)": "A (Increase in comparison with non-treated of >2.0 fold is shown as A)"},
      {"smiles": "Nc1cc(Nc2ccccc2F)cc(C(=O)Nc2ccccc2)n1", "note": "[Example 74, 6-Amino-4-((2-fluorophenyl)amino)-N-phenylpicolinamide]", "Range: increase in enzyme activity in comparison with non-treated cells (Enzyme activity assay for compounds of Examples 33-141)": "C (Increase in comparison with non-treated of 1.2-1.7 fold is shown as C)"},
      {"smiles": "COc1ccccc1Nc1cc(N)nc(C(=O)N2CCN(c3ccccc3)CC2)c1", "note": "[Example 51, (6-Amino-4-((2-methoxyphenyl)amino)pyridin-2-yl)(4-phenylpiperazin-1-yl)methanone]", "Range: increase in enzyme activity in comparison with non-treated cells (Enzyme activity assay for compounds of Examples 33-141)": "C (Increase in comparison with non-treated of 1.2-1.7 fold is shown as C)"},
      {"smiles": "Cl.Nc1cc(Nc2ccccc2F)nc(C(=O)NC2Cc3ccccc3C2)c1", "note": "[Example 139, 4-Amino-N-(2,3-dihydro-1H-inden-2-yl)-6-((2-fluorophenyl)amino)picolinamide hydrochloride]", "Range: increase in enzyme activity in comparison with non-treated cells (Enzyme activity assay for compounds of Examples 33-141)": "C (Increase in comparison with non-treated of 1.2-1.7 fold is shown as C)"},
      {"smiles": "COc1cccc(Nc2nc(N)nc3c2CCN(Cc2ccccc2)C3)c1", "note": "[Example 23, 7-Benzyl-N4-(3-methoxyphenyl)-5,6,7,8-tetrahydropyrido[3,4-d]pyrimidine-2,4-diamine]", "Range: increase in enzyme activity in comparison with non-treated cells (Enzyme activity assay for exemplified compounds)": "C (Increase in comparison with non-treated of 1.2-1.7 fold is shown as C)"},
      {"smiles": "Nc1nc(Nc2ccccc2O)cc(C(=O)N2CCN(c3ccccc3)CC2)n1", "note": "[Example 130, (2-Amino-6-((2-hydroxyphenyl)amino)pyrimidin-4-yl)(4-phenylpiperazin-1-yl)methanone]", "Range: increase in enzyme activity in comparison with non-treated cells (Enzyme activity assay for compounds of Examples 33-141)": "C (Increase in comparison with non-treated of 1.2-1.7 fold is shown as C)"},
      {"smiles": "Nc1cc(Nc2ccccc2F)nc(C(=O)NC2Cc3ccccc3C2)c1", "note": "[Example 71, 4-Amino-N-(2,3-dihydro-1H-inden-2-yl)-6-((2-fluorophenyl)amino)picolinamide]", "Range: increase in enzyme activity in comparison with non-treated cells (Enzyme activity assay for compounds of Examples 33-141)": "B (Increase in comparison with non-treated of >1.7-2.0 fold is shown as B)"},
      {"smiles": "Cc1cccc(Nc2cc(N)cc(C(=O)NC3Cc4ccccc4C3)n2)c1F", "note": "[Example 90, 4-Amino-N-(2,3-dihydro-1H-inden-2-yl)-6-((2-fluoro-3-methylphenyl)amino)picolinamide]", "Range: increase in enzyme activity in comparison with non-treated cells (Enzyme activity assay for compounds of Examples 33-141)": "C (Increase in comparison with non-treated of 1.2-1.7 fold is shown as C)"},
      {"smiles": "CN(Cc1ccccc1)C(=O)c1cc(N)nc(N[C@H]2CCCC[C@@H]2O)n1", "note": "[Example 15, 6-Amino-N-benzyl-2-(((1S,2S)-2-hydroxycyclohexyl)amino)-N-methylpyrimidine-4-carboxamide]", "Range: increase in enzyme activity in comparison with non-treated cells (Enzyme activity assay for exemplified compounds)": "D"},
      {"smiles": "Nc1cc(Nc2ccccc2O)cc(C(=O)N2CCN(c3ccccc3)CC2)n1", "note": "[Example 61, (6-Amino-4-((2-hydroxyphenyl)amino)pyridin-2-yl)(4-phenylpiperazin-1-yl)methanone]", "Range: increase in enzyme activity in comparison with non-treated cells (Enzyme activity assay for compounds of Examples 33-141)": "C (Increase in comparison with non-treated of 1.2-1.7 fold is shown as C)"}
    ]}
  ]
}
